Like-named read-outs stand apart in the source and are kept apart here.
Legend:
RCC III = RCC III activity in submitochondrial particles; type: biochemical, rat; parameters: key to RCC III at 100XCmax: activity relative to DMSO-treated controls (control set as 1 = 100%); conditions: 100XCmax; relative to DMSO treated samples
Summary of the method: (§1)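 First, submitochondrial particles (1 mg/ml) are incubated with inhibitor for 15 min. Next, complex activities are followed spectrophotometrically, with RCC I taken as the difference between buffers lacking and containing rotenone. Finally, activities are expressed relative to DMSO controls set at 1.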

[1] = tested on: isolated rat liver mitochondria; assay: Mitochondrial oxygen consumption (glutamate/malate or succinate driven, state 4 and state 3); type: biochemical; conditions: DMSO treated samples set as 1; on State 3 respiration driven by succinate at 10XCmax: key: 0 indicates that the drug had no effects (negative); on State 3 respiration driven by succinate at 1XCmax: key: 0 indicates that the drug had no effects (negative)
Summary of the method: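 Rat liver mitochondria (1 mg/ml protein) exposed 5 min to kinase inhibitors in 0.1% DMSO, then O2 consumption measured by Clark-type electrode with glutamate/malate or succinate (state 4), ADP added after 3 min (state 3). Rates normalized to 0.1% DMSO controls set to 1.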

[2] = tested on: isolated rat liver mitochondria; conditions: positive control alamethicin treated samples
RCC I = RCC I activity in submitochondrial particles; type: biochemical, rat; parameters: key to RCC I at 10XCmax / RCC I at 100XCmax / RCC I at 50XCmax / RCC I at 30XCmax / RCC I at 20XCmax: activity relative to DMSO-treated controls (control set as 1 = 100%); conditions: 10XCmax; relative to DMSO treated samples
Summary of the method: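 Activity relative to DMSO (set as 1) after 15-min exposure of submitochondrial particles (1 mg/ml) to compound. RCC I is defined as rotenone-sensitive activity and RCC II is followed at 600 nm over 6 min.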

[3] = tested on: isolated rat liver mitochondria; assay: Mitochondrial inner membrane potential (MMP), Rhodamine 123; type: biochemical; conditions: difference in signal between KI and DMSO treated samples at the end of experiments
Text: Fig. 3 KI effects on mitochondrial inner membrane potential (MMP). […] In a, c, data are means and standard derivations from three separate experiments. *p < 0.05 as compared to DMSO-treated samples at the end of experiments. In b, data are means of two independent experiments

RCC V = RCC V activity in submitochondrial particles; type: biochemical, rat; conditions: relative to DMSO treated samples; on RCC V at 5XCmax: key: 0 indicates that the drug had no effects (negative)
Summary of the method: as §1

[4] = cited from earlier work
[5] = tested on: isolated rat liver mitochondria; assay: Mitochondrial ROS production (CM-H2DCFDA); conditions: DMSO treated samples set as 1
RCC II = molecular target: T1, RCC II (Rattus norvegicus, UniProt P21913+Q641Z9+Q6PCT8+Q920L2); assay: RCC II activity in submitochondrial particles; type: biochemical; parameters: key: activity relative to DMSO-treated controls (control set as 1 = 100%); conditions: relative to DMSO treated samples
T1 construct: Submitochondrial particles were prepared by subjecting the intact mitochondria to three successive freeze–thaw cycles; from tissue; host or cells: rat liver mitochondria, used as submitochondrial particles
Summary of the method: as §1

T1 sequence (Q920L2 35-656): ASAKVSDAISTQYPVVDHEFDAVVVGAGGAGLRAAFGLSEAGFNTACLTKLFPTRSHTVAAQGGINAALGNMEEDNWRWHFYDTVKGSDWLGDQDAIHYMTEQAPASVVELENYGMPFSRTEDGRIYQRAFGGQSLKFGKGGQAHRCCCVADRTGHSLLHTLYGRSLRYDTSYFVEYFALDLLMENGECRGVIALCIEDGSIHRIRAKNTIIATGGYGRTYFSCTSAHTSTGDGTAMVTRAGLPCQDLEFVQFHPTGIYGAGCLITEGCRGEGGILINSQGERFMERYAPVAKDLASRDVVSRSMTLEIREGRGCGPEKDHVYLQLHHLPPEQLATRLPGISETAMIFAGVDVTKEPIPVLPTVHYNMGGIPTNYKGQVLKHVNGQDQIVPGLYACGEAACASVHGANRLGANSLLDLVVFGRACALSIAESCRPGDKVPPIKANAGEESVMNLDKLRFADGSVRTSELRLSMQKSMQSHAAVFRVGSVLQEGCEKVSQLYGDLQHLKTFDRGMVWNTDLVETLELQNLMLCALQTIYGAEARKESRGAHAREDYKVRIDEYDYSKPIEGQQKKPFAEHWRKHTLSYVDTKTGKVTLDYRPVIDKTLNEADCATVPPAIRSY
T1 sequence (P21913 31-282): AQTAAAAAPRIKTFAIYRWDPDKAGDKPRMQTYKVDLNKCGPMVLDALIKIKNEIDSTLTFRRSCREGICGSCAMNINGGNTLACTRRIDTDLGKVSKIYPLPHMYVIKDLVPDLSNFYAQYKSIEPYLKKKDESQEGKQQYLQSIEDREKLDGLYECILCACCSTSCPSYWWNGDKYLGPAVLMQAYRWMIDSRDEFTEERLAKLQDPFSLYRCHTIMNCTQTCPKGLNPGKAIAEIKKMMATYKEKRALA
T1 sequence (Q641Z9 1-169): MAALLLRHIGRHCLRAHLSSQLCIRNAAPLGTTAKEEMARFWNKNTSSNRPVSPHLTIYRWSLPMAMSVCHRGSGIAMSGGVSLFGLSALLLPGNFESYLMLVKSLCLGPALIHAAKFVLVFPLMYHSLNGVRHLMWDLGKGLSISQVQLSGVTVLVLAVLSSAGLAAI
T1 sequence (Q6PCT8 57-159): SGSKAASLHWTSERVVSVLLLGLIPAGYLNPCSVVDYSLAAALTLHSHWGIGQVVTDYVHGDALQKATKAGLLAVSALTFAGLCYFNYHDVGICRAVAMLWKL

SMILES: CNC(=O)c1ccccc1Sc1ccc2c(/C=C/c3ccccn3)n[nH]c2c1 [Axitinib]
- RCC III at 100XCmax (RCC III): 0
- State 3 respiration driven by glutamate/malate at 1XCmax ([1]; 1XCmax): 0
- State 3 respiration driven by succinate at 1XCmax ([1]; 1XCmax): 0
- State 4 respiration driven by glutamate/malate at 1XCmax ([1]; 1XCmax): 0
- State 4 respiration driven by succinate at 1XCmax ([1]; 1XCmax): 0
- State 3 respiration driven by glutamate/malate at 2.5XCmax ([1]; 2.5XCmax): 0
- State 3 respiration driven by succinate at 2.5XCmax ([1]; 2.5XCmax): 0
- State 4 respiration driven by glutamate/malate at 2.5XCmax ([1]; 2.5XCmax): 0
- State 4 respiration driven by succinate at 2.5XCmax ([1]; 2.5XCmax): 0
- State 3 respiration driven by glutamate/malate at 5XCmax ([1]; 5XCmax): 0
- State 3 respiration driven by succinate at 5XCmax ([1]; 5XCmax): 0
- State 4 respiration driven by glutamate/malate at 5XCmax ([1]; 5XCmax): 0
- State 4 respiration driven by succinate at 5XCmax ([1]; 5XCmax): 0
- State 3 respiration driven by glutamate/malate at 10XCmax ([1]; 10XCmax): 0
- State 3 respiration driven by succinate at 10XCmax ([1]; 10XCmax): 0
- State 4 respiration driven by glutamate/malate at 10XCmax ([1]; 10XCmax): 0
- State 4 respiration driven by succinate at 10XCmax ([1]; 10XCmax): 0
- State 3 respiration driven by glutamate/malate at 20XCmax ([1]; 20XCmax): 0
- State 3 respiration driven by succinate at 20XCmax ([1]; 20XCmax): 0
- State 4 respiration driven by glutamate/malate at 20XCmax ([1]; 20XCmax): 0
- State 4 respiration driven by succinate at 20XCmax ([1]; 20XCmax): 0
- State 3 respiration driven by glutamate/malate at 30XCmax ([1]; 30XCmax): 0
- State 3 respiration driven by succinate at 30XCmax ([1]; 30XCmax): 0
- State 4 respiration driven by glutamate/malate at 30XCmax ([1]; 30XCmax): 0
- State 4 respiration driven by succinate at 30XCmax ([1]; 30XCmax): 0
- State 3 respiration driven by glutamate/malate at 50XCmax ([1]; 50XCmax): 0
- State 3 respiration driven by succinate at 50XCmax ([1]; 50XCmax): 0
- State 4 respiration driven by glutamate/malate at 50XCmax ([1]; 50XCmax): 0
- State 4 respiration driven by succinate at 50XCmax ([1]; 50XCmax): 0
- State 3 respiration driven by glutamate/malate at 100XCmax ([1]; 100XCmax): 0
- State 3 respiration driven by succinate at 100XCmax ([1]; 100XCmax): 0
- State 4 respiration driven by glutamate/malate at 100XCmax ([1]; 100XCmax): 0
- State 4 respiration driven by succinate at 100XCmax ([1]; 100XCmax): 0
- Cytochrome c release 1XCmax ([2]; 1XCmax): 0
- Cytochrome c release 2.5XCmax ([2]; 2.5XCmax): 0
- Cytochrome c release 5XCmax ([2]; 5XCmax): 0
- Cytochrome c release 10XCmax ([2]; 10XCmax): 0
- Cytochrome c release 20XCmax ([2]; 20XCmax): 0
- Cytochrome c release 30XCmax ([2]; 30XCmax): 0
- Cytochrome c release 50XCmax ([2]; 50XCmax): 0
- Cytochrome c release 100XCmax ([2]; 100XCmax): 0
- RCC I at 10XCmax (RCC I): 0
- MMP measured by Rhodamine 123 at 1XCmax ([3]; 1XCmax): 0
- MMP measured by Rhodamine 123 at 2.5XCmax ([3]; 2.5XCmax): 0
- MMP measured by Rhodamine 123 at 5XCmax ([3]; 5XCmax): 0
- MMP measured by Rhodamine 123 at 10XCmax ([3]; 10XCmax): 0
- MMP measured by Rhodamine 123 at 20XCmax ([3]; 20XCmax): 0
- MMP measured by Rhodamine 123 at 30XCmax ([3]; 30XCmax): 0
- MMP measured by Rhodamine 123 at 50XCmax ([3]; 50XCmax): 0
- MMP measured by Rhodamine 123 at 100XCmax ([3]; 100XCmax): 0
- RCC V at 5XCmax (RCC V; 5XCmax): 0
- RCC V at 50XCmax (RCC V; 50XCmax): 0
- Cmax ([4]; human therapeutic Cmax at FDA recommended dosages, ref product labeling and drug approval packages at the official FDA website): 70 nM
- Cmax ([4]; therapeutic maximal blood concentration, ref product labeling): 27.8 ng/mL
- ROS measured by CM-H2DCFDA at 1XCmax ([5]; 1XCmax): 0
- ROS measured by CM-H2DCFDA at 2.5XCmax ([5]; 2.5XCmax): 0
- ROS measured by CM-H2DCFDA at 5XCmax ([5]; 5XCmax): 0
- ROS measured by CM-H2DCFDA at 10XCmax ([5]; 10XCmax): 0
- ROS measured by CM-H2DCFDA at 20XCmax ([5]; 20XCmax): 0
- ROS measured by CM-H2DCFDA at 30XCmax ([5]; 30XCmax): 0
- ROS measured by CM-H2DCFDA at 50XCmax ([5]; 50XCmax): 0
- ROS measured by CM-H2DCFDA at 100XCmax ([5]; 100XCmax): 0
- RCC II at 1.0XCmax (RCC II; 1.0XCmax): 0
- RCC II at 2.5XCmax (RCC II; 2.5XCmax): 0
- RCC II at 5XCmax (RCC II; 5XCmax): 0
- RCC II at 10XCmax (RCC II; 10XCmax): 0
- RCC II at 20XCmax (RCC II; 20XCmax): 0
- RCC II at 30XCmax (RCC II; 30XCmax): 0
- RCC II at 50XCmax (RCC II; 50XCmax): 0
- RCC II at 100XCmax (RCC II; 100XCmax): 0

From PMC5515969, “Effects of 31 FDA approved small-molecule kinase inhibitors on isolated rat liver mitochondria” (Archives of Toxicology, 2016)
